The record followed here is US20060205826A1, “Method of using carotenoids in the prevention of cognitive decline and for other neuroprotection functions” (priority 2005, published 2006).

In this assay the test system is GSH. Put plainly: GSH content in hippocampus homogenate of diabetic mice. It counts as in vivo. The note with it: lutein 0.2 mg/kg p.o. or insulin 500 mU/g s.c. on days 4-13. On the procedure:
Male albino mice were used throughout the study, housed in a environmentally regulated room on a dark-light cycle of 12 hours with free access to food and water. Principles of laboratory animal care (NIH publication no. 85-23, revised 1985) were followed, as well as specific Spanish regulations. Animals were made diabetic with a single subcutaneous injection of 200 mg alloxan/kg body weight (66 mg/ml) in 0.1 M citrate buffer, pH 4.5, at day 0 of the experiment. Control mice were injected with the same volume of vehicle also at day 0 of the experiment.
Mice were identified as diabetic on the basis of blood glucose levels (higher than 16 mM at least 4 days after alloxan treatment). Animals were divided into subgroups as required by the experiment (control, control+lutein, diabetic, diabetic+lutein, diabetic+insulin, diabetic+insulin+lutein). Lutein was administered daily at a dose of 0.2 mg/kg p.o since day 4 after alloxan or citrate buffer injection until the end of the experiment. […] Glycated hemoglobin was determined in blood samples obtained by heart puncture immediately before killing the animals.
The GSH content of eye homogenate was quatitated by the method of Reed et al. (Reed et al., 1980). […] These products are quickly separated by HPLC which allows the quantification of nanomolars levels of GSH.

In the case of `CC1=C[C@H](O)CC(C)(C)[C@H]1/C=C/C(C)=C/C=C/C(C)=C/C=C/C=C(C)/C=C/C=C(C)/C=C/C1=C(C)C[C@@H](O)CC1(C)C` [Lutein], the “GSH content in hippocampus homogenate” value is on record as “restored”.
